The record followed here is patent US11518742B2 (priority 2020, dated 2022).

Data set [1] in a line: Generation of amorphous 5MeODMT benzoate and conversion on standing (XRPD, DSC). Type of data set: physicochemical. The settings on record: on standing / all conditions studied. On the procedure: The flask was transferred to a vacuum and equilibrated to ambient temperature affording a fluffy white solid, 21-01-051 C.
The solid transformed into gum over ca. 1 hour. The sample was analysed immediately and after 20 hours held in a sealed container.

The nature of data set [2]: Dynamic Vapour Sorption (DVS). Type of data set: physicochemical. As for the experimental part:
A modified DVS isotherm of lot 20/45/006-FP (the same crystalline version) was undertaken to examine material behaviour from 60% RH and above. […] This is to obtain in-depth profiling of the material towards humidity at these elevated levels.
Temperature and humidity are important factors in the processing and storage of pharmaceuticals. DVS provides a versatile and sensitive technique for evaluating the stability of pharmaceutical formulations.
The solution was clarified into a 500 ml round bottom flask, the round bottom flask was rotated in an acetone/dry ice bath to freeze the solution in a thin layer around the flask. The ice was sublimed in vacuo at ambient temperature affording a fluffy white solid. The solid was removed from the round bottom flask and transferred to the DVS instrument. During this transfer, the solid collapsed to a sticky gum.
The sample was examined by DVS from 40% RH and cycled between 0% RH and 90% RH twice.
XRPD was collected on a portion of the sample post-lyophoilisation and post-DVS examination.

Consider `COc1ccc2[nH]cc(CCN(C)C)c2c1.O=C(O)c1ccccc1` [Amorphous 5MeODMT benzoate], for which the “Stability of the amorphous form” value was “unstable and undergoes transformation to Pattern A form under all conditions studied” in data set [1]; “will convert to Pattern A form material on standing” in data set [1] (listed as amorphous 5MeODMT benzoate). Moreover, the “Solid form after DVS examination (XRPD)” value in data set [2] (amorphous input, after DVS at 90% RH) was “concordant with Pattern A”. Moreover, the Initial weight reduction result in data set [2] (amorphous lot 21-01-078, first desorption cycle) is “ca. 1.4%”. Further, in data set [2] (amorphous lot 21-01-078, second sorption, between 50% RH and 90% RH), the Weight increase came to 0.2%. The Weight loss entry in data set [2] (amorphous, DVS examination) is given as “ca. 2%”.
